From patent publication US20250235543A1, “MODIFIED PROTEINS AND PROTEIN DEGRADERS” (Cullgen (Shanghai), Inc., priority 2021, published 2025)
Like-named read-outs stand apart in the source and are kept apart here.

What was measured:
[1] = tested on: cyclin D1; experiment: Cyclin D1 percentage degradation in Calu-1 cells (immunoblotting); assay type: cell-based; conditions: 16 hours
Method in brief: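 Cells were rinsed once in cold PBS and lysed in cold RIPA buffer containing protease and phosphatase inhibitors, with gentle agitation at 4° C. for 30 min. Lysates were spun at 13,000 rpm for 10 min at 4° C., protein was measured by BCA, and samples were boiled in Laemmli buffer at 99° C. for 5 min before SDS-PAGE immunoblotting.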

[2] = biological target: T1, CDK4 (Homo sapiens, UniProt P11802); experiment: CDK4 percentage degradation in Calu-1 cells (immunoblotting); assay type: cell-based; conditions: for inhibition at 10 µM: read-out: CDK4 Degradation (10 μM); for inhibition at 0.2 µM: read-out: CDK4 Degradation (200 nM)
T1 construct: endogenous in cells; host or cells: Calu-1
T1 sequence (P11802 2-303 limits assumed): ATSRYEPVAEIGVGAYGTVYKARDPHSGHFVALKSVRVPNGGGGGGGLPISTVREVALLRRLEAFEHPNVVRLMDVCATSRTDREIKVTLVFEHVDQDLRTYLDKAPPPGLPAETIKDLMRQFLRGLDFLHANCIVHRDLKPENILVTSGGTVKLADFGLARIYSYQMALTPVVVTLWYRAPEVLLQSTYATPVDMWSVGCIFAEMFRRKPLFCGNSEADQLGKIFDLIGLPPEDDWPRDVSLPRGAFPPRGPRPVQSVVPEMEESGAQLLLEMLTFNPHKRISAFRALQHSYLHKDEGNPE
T1 sequence (P24385 whole entry partner): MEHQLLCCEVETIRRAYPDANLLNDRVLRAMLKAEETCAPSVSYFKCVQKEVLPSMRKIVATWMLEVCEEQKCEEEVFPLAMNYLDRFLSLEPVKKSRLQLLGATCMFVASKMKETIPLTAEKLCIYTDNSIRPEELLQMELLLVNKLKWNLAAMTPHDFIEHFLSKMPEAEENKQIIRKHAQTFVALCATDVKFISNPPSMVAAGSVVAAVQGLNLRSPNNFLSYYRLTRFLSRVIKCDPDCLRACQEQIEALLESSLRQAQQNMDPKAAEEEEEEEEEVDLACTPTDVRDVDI
T1 sequence (Q16531 2-1140 limits assumed, further chain): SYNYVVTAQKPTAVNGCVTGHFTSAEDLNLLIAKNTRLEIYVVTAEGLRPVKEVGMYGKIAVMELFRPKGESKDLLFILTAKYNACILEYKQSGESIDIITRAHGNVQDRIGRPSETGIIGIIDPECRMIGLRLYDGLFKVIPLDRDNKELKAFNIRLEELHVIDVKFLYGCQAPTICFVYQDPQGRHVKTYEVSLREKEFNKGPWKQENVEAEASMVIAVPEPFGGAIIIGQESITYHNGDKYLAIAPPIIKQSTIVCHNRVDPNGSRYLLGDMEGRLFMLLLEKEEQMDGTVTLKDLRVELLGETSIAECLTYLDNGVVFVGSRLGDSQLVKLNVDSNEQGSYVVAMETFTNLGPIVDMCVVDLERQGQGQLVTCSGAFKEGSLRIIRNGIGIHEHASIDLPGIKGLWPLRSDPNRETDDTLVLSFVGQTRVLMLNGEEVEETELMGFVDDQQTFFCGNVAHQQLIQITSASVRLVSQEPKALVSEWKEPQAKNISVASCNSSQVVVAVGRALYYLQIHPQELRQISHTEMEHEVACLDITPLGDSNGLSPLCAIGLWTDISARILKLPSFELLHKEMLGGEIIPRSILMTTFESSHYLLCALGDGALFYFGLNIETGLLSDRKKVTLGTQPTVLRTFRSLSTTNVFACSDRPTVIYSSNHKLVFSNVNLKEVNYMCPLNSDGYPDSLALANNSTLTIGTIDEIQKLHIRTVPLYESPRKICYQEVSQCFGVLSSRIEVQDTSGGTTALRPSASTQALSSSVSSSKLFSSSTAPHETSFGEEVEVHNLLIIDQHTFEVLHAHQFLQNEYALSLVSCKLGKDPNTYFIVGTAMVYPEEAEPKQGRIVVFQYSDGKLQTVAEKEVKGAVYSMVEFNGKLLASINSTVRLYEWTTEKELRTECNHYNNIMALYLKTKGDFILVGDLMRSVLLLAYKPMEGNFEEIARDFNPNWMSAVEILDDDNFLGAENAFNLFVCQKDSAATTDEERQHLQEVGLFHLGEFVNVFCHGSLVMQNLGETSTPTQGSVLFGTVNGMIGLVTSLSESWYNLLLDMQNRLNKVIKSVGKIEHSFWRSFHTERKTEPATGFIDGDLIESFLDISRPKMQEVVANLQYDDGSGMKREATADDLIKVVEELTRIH
Method in brief: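 Cultured cells were rinsed once in cold PBS and lysed in cold RIPA buffer containing protease and phosphatase inhibitors, with gentle agitation at 4° C. for 30 min. Lysates were centrifuged at 13,000 rpm for 10 min at 4° C., and protein was quantified by BCA. Samples were then separated by SDS-PAGE, detected with ECL, and the CDK4 bands quantified in Image Lab.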

Row | Structure (SMILES) | CyclinD1 Degradation (10 μM) [1] | inhibition at 10 µM ([2]; Calu-1 cells, 16 hours) | CyclinD1 Degradation (200 nM) [1] | inhibition at 0.2 µM ([2]; Calu-1 cells, 200 nM, 16 hours) | inhibition at 0.2 µM ([2]; Calu-1, 16 h)
1 | Cc1nc(NC(=O)c2ccccc2NC(=O)CCCCCCCCNC(=O)CN2CCN(c3ccc(Nc4ncc5cc6n(c5n4)C4(CCCCC4)CNC6=O)nc3)CC2)sc1C [CPD-321, N-(4,5-Dimethylthiazol-2-yl)-2-(9-(2-(4-(6-((6′-oxo-7′,8′-dihydro-6′H-spiro[cyclohexane-1,9′-pyrazino[1′,2′:1,5]pyrrolo[2,3-d]pyrimidin]-2′-yl)amino)pyridin-3-yl)piperazin-1-yl)acetamido)nonanamido)benzamide] | A (protein percentage degradation >= 80%) | 50 to 80% | – | – | –
2 | CC(=O)c1c(C)c2cnc(Nc3ccc(N4CCN(CC(=O)NCCCCCCCC(=O)Nc5ccccc5C(=O)Nc5nc(C)c(C)s5)CC4)cn3)nc2n(C2CCCC2)c1=O [CPD-136, 2-(8-(2-(4-(6-((6-Acetyl-8-cyclopentyl-5-methyl-7-oxo-7,8-dihydropyrido[2,3-d]pyrimidin-2-yl)amino)pyridin-3-yl)piperazin-1-yl)acetamido)octanamido)-N-(4,5-dimethylthiazol-2-yl)benzamide] | – | – | A (protein percentage degradation >=80%) | 50 to 80% | –
3 | CC(=O)c1c(C)c2cnc(Nc3ccc(N4CCN(C(=O)CCOCCNc5ccc(C)c(C(=O)Nc6nc(C)c(C)s6)c5)CC4)cn3)nc2n(C2CCCC2)c1=O [CPD-110, 5-((2-(3-(4-(6-((6-Acetyl-8-cyclopentyl-5-methyl-7-oxo-7,8-dihydropyrido[2,3-d]pyrimidin-2-yl)amino)pyridin-3-yl)piperazin-1-yl)-3-oxopropoxy)ethyl)amino)-N-(4,5-dimethylthiazol-2-yl)-2-methylbenzamide] | – | – | D (protein percentage degradation <30%) | – | < 30%
4 | CC(=O)c1c(C)c2cnc(Nc3ccc(N4CCN(CC(=O)NCCCCCCCNc5nc(C)ccc5C(=O)Nc5nc(C)c(C)s5)CC4)cn3)nc2n(C2CCCC2)c1=O [CPD-338, 2-((7-(2-(4-(6-((6-Acetyl-8-cyclopentyl-5-methyl-7-oxo-7,8-dihydropyrido[2,3-d]pyrimidin-2-yl)amino)pyridin-3-yl)piperazin-1-yl)acetamido)heptyl)amino)-N-(4,5-dimethylthiazol-2-yl)-6-methylnicotinamide] | – | – | A (protein percentage degradation >=80%) | 50 to 80% | –
5 | CC(=O)c1c(C)c2cnc(Nc3ccc(N4CCN(C(=O)CCOCCOCCOCCOCCC(=O)Nc5ccccc5C(=O)Nc5nc(C)c(C)s5)CC4)cn3)nc2n(C2CCCC2)c1=O [CPD-176, 16-(4-(6-((6-Acetyl-8-cyclopentyl-5-methyl-7-oxo-7,8-dihydropyrido[2,3-d]pyrimidin-2-yl)amino)pyridin-3-yl)piperazin-1-yl)-N-(2-((4,5-dimethylthiazol-2-yl)carbamoyl)phenyl)-16-oxo-4,7,10,13-tetraoxahexadecanamide] | – | – | A (protein percentage degradation >=80%) | – | > 80%
6 | COc1ccc(NC(=O)c2ccccc2NC(=O)CCOCCOCCNC(=O)CN2CCN(c3ccc(Nc4ncc5c(C)c(C(C)=O)c(=O)n(C6CCCC6)c5n4)nc3)CC2)nc1 [CPD-342, 2-(3-(2-(2-(2-(4-(6-((6-Acetyl-8-cyclopentyl-5-methyl-7-oxo-7,8-dihydropyrido[2,3-d]pyrimidin-2-yl)amino)pyridin-3-yl)piperazin-1-yl)acetamido)ethoxy)ethoxy)propanamido)-N-(5-methoxypyridin-2-yl)benzamide] | – | – | A (protein percentage degradation >=80%) | 50 to 80% | –
7 | Cc1nc(NC(=O)c2ccccc2NC(=O)CCOCCOCCNC(=O)CN2CCN(c3ccc(Nc4ncc5cc(C(=O)N(C)C)n(C6CCCC6)c5n4)nc3)CC2)sc1C [CPD-295, 7-Cyclopentyl-2-((5-(4-(2-((2-(2-(3-((2-((4,5-dimethylthiazol-2-yl)carbamoyl)phenyl)amino)-3-oxopropoxy)ethoxy)ethyl)amino)-2-oxoethyl)piperazin-1-yl)pyridin-2-yl)amino)-N,N-dimethyl-7H-pyrrolo[2,3-d]pyrimidine-6-carboxamide] | A (protein percentage degradation >= 80%) | 50 to 80% | – | – | –
8 | CC(=O)c1c(C)c2cnc(Nc3ccc(N4CCN(CC(=O)NCCCCCCCNc5ccccc5C(=O)Nc5nc(C)c(C)s5)CC4)cn3)nc2n(C2CCCC2)c1=O [CPD-364, 2-((7-(2-(4-(6-((6-Acetyl-8-cyclopentyl-5-methyl-7-oxo-7,8-dihydropyrido[2,3-d]pyrimidin-2-yl)amino)pyridin-3-yl)piperazin-1-yl)acetamido)heptyl)amino)-N-(4,5-dimethylthiazol-2-yl)benzamide] | – | – | A (protein percentage degradation >=80%) | 50 to 80% | –
9 | Cc1nc(NC(=O)c2ccccc2NC(=O)CCNC(=O)CN2CCN(Cc3ccc(Nc4ncc(F)c(-c5cc(F)c6nc(C)n(C(C)C)c6c5)n4)nc3)CC2)sc1C [CPD-273, N-(4,5-Dimethylthiazol-2-yl)-2-(3-(2-(4-((6-((5-fluoro-4-(4-fluoro-1-isopropyl-2-methyl-1H-benzo[d]imidazol-6-yl)pyrimidin-2-yl)amino)pyridin-3-yl)methyl)piperazin-1-yl)acetamido)propanamido)benzamide] | D (protein percentage degradation < 30%) | < 30% | – | – | –
10 | CC(=O)c1c(C)c2cnc(Nc3ccc(N4CCN(CC(=O)NCCCCCNc5ccccc5C(=O)Nc5nc(C)c(C)s5)CC4)cn3)nc2n(C2CCCC2)c1=O [CPD-363, 2-((5-(2-(4-(6-((6-Acetyl-8-cyclopentyl-5-methyl-7-oxo-7,8-dihydropyrido[2,3-d]pyrimidin-2-yl)amino)pyridin-3-yl)piperazin-1-yl)acetamido)pentyl)amino)-N-(4,5-dimethylthiazol-2-yl)benzamide] | – | – | A (protein percentage degradation >=80%) | 50 to 80% | –
11 | CC(=O)c1c(C)c2cnc(Nc3ccc(N4CCN(CC(=O)NCCOCCOCCOCCOCCOCCNc5cccc(C(=O)Nc6nc(C)c(C)s6)c5C)CC4)cn3)nc2n(C2CCCC2)c1=O [CPD-107, 3-((1-(4-(6-((6-Acetyl-8-cyclopentyl-5-methyl-7-oxo-7,8-dihydropyrido[2,3-d]pyrimidin-2-yl)amino)pyridin-3-yl)piperazin-1-yl)-2-oxo-6,9,12,15,18-pentaoxa-3-azaicosan-20-yl)amino)-N-(4,5-dimethylthiazol-2-yl)-2-methylbenzamide] | – | – | A (protein percentage degradation >=80%) | > 80% | –
12 | CC(=O)c1c(C)c2cnc(Nc3ccc(N4CCN(CC(=O)NCCCCCCCCNc5ccc(C)c(C(=O)Nc6nc(C)c(C)s6)c5)CC4)cn3)nc2n(C2CCCC2)c1=O [CPD-095, 5-((8-(2-(4-(6-((6-Acetyl-8-cyclopentyl-5-methyl-7-oxo-7,8-dihydropyrido[2,3-d]pyrimidin-2-yl)amino)pyridin-3-yl)piperazin-1-yl)acetamido)octyl)amino)-N-(4,5-dimethylthiazol-2-yl)-2-methylbenzamide] | – | – | D (protein percentage degradation <30%) | < 30% | –
